Measurements taken from ChEMBL document CHEMBL1158716, “Sesquiterpenoids and plasmin-inhibitory flavonoids from Blumea balsamifera” (J Nat Prod, 2005).

Key:
Plasminogen = Plasminogen (Homo sapiens, UniProt P00747); experiment: Inhibition of plasmin
Jurkat = experiment: Cytotoxicity against human Jurkat cells; assay type: functional, cell-based

Chain of Plasminogen (P00747 97-580 limits assumed): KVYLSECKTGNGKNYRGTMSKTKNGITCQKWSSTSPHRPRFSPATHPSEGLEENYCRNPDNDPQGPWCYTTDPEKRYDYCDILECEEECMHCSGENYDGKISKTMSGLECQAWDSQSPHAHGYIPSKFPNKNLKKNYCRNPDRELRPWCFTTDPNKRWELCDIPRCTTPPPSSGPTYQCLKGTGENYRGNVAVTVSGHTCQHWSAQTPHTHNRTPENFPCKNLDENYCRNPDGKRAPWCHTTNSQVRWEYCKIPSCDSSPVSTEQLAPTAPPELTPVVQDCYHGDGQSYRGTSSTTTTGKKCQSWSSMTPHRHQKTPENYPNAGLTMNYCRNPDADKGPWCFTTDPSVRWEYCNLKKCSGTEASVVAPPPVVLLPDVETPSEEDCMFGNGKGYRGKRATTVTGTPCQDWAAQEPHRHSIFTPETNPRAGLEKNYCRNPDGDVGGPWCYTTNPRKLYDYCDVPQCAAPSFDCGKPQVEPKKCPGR
Chain of Plasminogen (P00747 581-810 limits assumed): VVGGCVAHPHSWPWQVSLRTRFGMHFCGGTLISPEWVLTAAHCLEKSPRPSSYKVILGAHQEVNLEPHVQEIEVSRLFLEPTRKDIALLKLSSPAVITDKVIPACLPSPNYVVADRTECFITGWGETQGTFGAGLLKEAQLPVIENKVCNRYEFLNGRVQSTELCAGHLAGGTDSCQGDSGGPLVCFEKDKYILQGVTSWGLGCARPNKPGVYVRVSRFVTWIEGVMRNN

Structure (SMILES): COc1cc(O)c2c(=O)c(OC)c(-c3ccc(O)c(O)c3)oc2c1
- IC50 (Plasminogen): 1500 nM

Structure (SMILES): COc1cc(O)c2c(=O)cc(-c3ccc(O)c(O)c3)oc2c1
- IC50 (Plasminogen): 2300 nM

Structure (SMILES): C/C1=C\C(=O)[C@@H](C(C)C)C[C@@H](OC(=O)[C@]2(C)O[C@@H]2C)[C@](C)(O)C(=O)CC1
- IC50 (Jurkat): 26.2 µM

Structure (SMILES): C=C1CC[C@@]2(O)[C@H]1C(=O)[C@@H](C(C)C)C[C@@H](OC(=O)/C(C)=C\C)[C@]2(C)O
- IC50 (Jurkat): > 70 µM

Structure (SMILES): CC(=O)N[C@@H](CC(C)C)C(=O)N[C@@H](CC(C)C)C(=O)N[C@H](C=O)CCCNC(=N)N [LEUPEPTIN]
- IC50 (Plasminogen): 1200 nM
